This note sets out measurements from US20100105722A1, “Substituted 4,5,6,7-tetrahydrothienopyridines as KCNQ2/3 Modulators” (GRUENENTHAL GmbH, priority 2008, published 2010).

For assay [1], the target named is T1, hKCNQ2/3 (Homo sapiens, UniProt O43525+O43526).
T1 construct: expressed in transfected cells; host or cells: CHO-K1
Nature of the assay: Voltage clamp (patch-clamp) measurements on stably transfected hKCNQ2/3 CHO-K1 cell line. Conditions: at -40 mV, relative to retigabine (10 μM) = 100%, read-out: patch-clamp % Efficacy @ 10 μM (retigabine = 100%). In kind it is cell-based. As for the experimental part:
Voltage Clamp Measurements
In order to confirm a KCNQ2/3-agonistic action of the substances electro-physiologically, patch-clamp measurements (Hamill O P, Marty A, Neher E, Sakmann B, Sigworth F J.: Improved patch-clamp techniques for high-resolution current recording from cells and cell-free membrane patches, Pflugers Arch. 1981 August; 391(2):85-100) were carried out in voltage clamp mode on a stably transfected hKCNQ2/3 CHO-K1 cell line. After formation of the gigaseal, the cells were first clamped at a holding potential of −60 mV. Thereafter, depolarizing voltage jumps were applied up to a potential of +20 mV (increment: 20 mV, duration: 1 second) in order to confirm the functional expression of KCNQ2/3-typical currents. The testing of the substances was carried out at a potential of −40 mV. The increase in current induced by retigabine (10 μM) at −40 mV was first recorded as a positive control on each cell. After complete washing out of the retigabine effect (duration: 80 s), the test substance (10 μM) was applied. The increase in current induced by the test substance was standardized to the retigabine effect and indicated as the relative efficacy (see below).
(In patch-clamp work, channel activity is measured electrically.)

The target in assay [2] is T1, hKCNQ2/3. Nature of the assay: Fluorescence assay using a voltage sensitive dye (fluorimetry). Format: cell-based. On the procedure: Fluorescence Assay using a Voltage Sensitive Dye
Human CHO-K1 cells expressing KCNQ2/3 channels are cultivated adherently at 37° C., 5% CO2 and 95% humidity in cell culture bottles (e.g. 80 cm^2 TC flasks, Nunc) with DMEM-high glucose (Sigma Aldrich, D7777) including 10% FCS (PAN Biotech, e.g. 3302-P270521) or alternatively MEM Alpha Medium (1×, liquid, Invitrogen, #22571), 10% fetal calf serum (FCS) (Invitrogen, #10270-106, heat-inactivated) and the necessary selection antibiotics.
Before being sown out for the measurements, the cells are washed with a 1×DPBS buffer without Ca^2+/Mg^2+ (e.g. Invitrogen, #14190-094) and detached from the bottom of the culture vessel by means of Accutase (PAA Laboratories, #L11-007) (incubation with Accutase for 15 min at 37° C.). The cell count then present is determined using a CASY™ cell counter (TCC model, Schärfe System) in order subsequently to apply, depending on the density optimization for the individual cell line, 20,000-30,000 cells/well/100 μl of the described nutrient medium to 96-well measuring plates of the Corning™ CellBIND™ type (Flat Clear Bottom Black Polystyrene Microplates, #3340). Incubation is then carried out for one hour at room temperature, without gassing or adjusting the humidity, followed by incubation for 24 hours at 37° C., 5% CO2 and 95% humidity.
The voltage-sensitive fluorescent dye from the Membrane Potential Assay Kit (Red™ Bulk format part R8123 for FLIPR, MDS Analytical Technologies™) is prepared by dissolving the contents of a vessel Membrane Potential Assay Kit Red Component A in 200 ml of extracellular buffer (ES buffer, 120 mM NaCl, 1 mM KCl, 10 mM HEPES, 2 mM CaCl2, 2 mM MgCl2, 10 mM glucose; pH 7.4). After removal of the nutrient medium, the cells are washed with 200 μl of ES buffer, then covered with a layer of 100 μl of the dye solution prepared above and incubated for 45 min at room temperature with the exclusion of light.
The fluorescence measurements are carried out with a BMG Labtech FLUOstar™, BMG Labtech NOVOstar™ or BMG Labtech POLARstar™ instrument (525 nm excitation, 560 nm emission, Bottom Read mode). After incubation of the dye, 50 μl of the test substances in the desired concentrations, or 50 μl of ES buffer for control purposes, are introduced into separate cavities of the measuring plate and incubated for 30 min at room temperature while being shielded from light. The fluorescence intensity of the dye is then measured for 5 min and the fluorescence value F1 of each well is thus determined at a given, constant time. 15 μl of a […] KCl solution ([…]) are then added to each well. The change in fluorescence is subsequently measured until all the relevant measured values have been obtained (mainly 5-30 min). At a given time after KCl application, a fluorescence value F2 is determined, in this case at the time of the fluorescence peak.
For calculation, the fluorescence intensity F2 is compared with the fluorescence intensity F1, and the agonistic activity of the target compound on the potassium channel is determined therefrom. F2 and F1 are calculated as follows: […]
In order to determine whether a substance has agonistic activity, […]
for example, can be compared with […]
is determined by adding to the reaction batch only the buffer solution instead of the test substance, determining the value F1K of the fluorescence intensity, adding the potassium ions as described above, and measuring a value F2K of the fluorescence intensity. F2K and F1K are then calculated as follows: […]
A substance has an agonistic activity on the potassium channel when […]
Independently of the comparison of […]
it is possible to conclude that a target compound has agonistic activity if an increase in […]
is to be observed as the dosage of the target compound increases.
Calculations of EC50 and IC50 values are carried out with the aid of ‘Prism v4.0’ software (GraphPad Software™).

In assay [3] the test system is formalin-induced nociceptive behavior. Briefly: Formalin test in the rat (phase II, chronic pain component). Format: in vivo. Conditions: for Formalin test rat i.v. @ 10 mg/kg % reduction in noiceptive behavior: comparison experiments table; for Formalin test rat i.v. % reduction in nociceptive behavior: phase II, Table 3. As for the experimental part:
Formalin Test in the Rat The formalin test (Dubuisson, D. and Dennis, S. G., 1977, Pain, 4, 161-174) represents a model for both acute and chronic pain. In the studies presented here, the chronic pain component (phase II of the formalin test; time period 21-27 min after formalin administration) was evaluated. A biphase nociceptive reaction is induced in freely mobile test animals by a single formalin injection into the dorsal side of a rear paw, the reaction being detected by observation of three clearly distinguishable behavior patterns. Formalin is administered subcutaneously into the dorsal side of the right rear paw of each animal in a volume of 50 μl and a concentration of 5%. The vehicle and the test substances are administered intravenously 5 min, or orally 30 min, before the formalin injection. The specific changes in behavior, such as lifting and shaking of the paw, weight displacement of the animal and biting and licking reactions, are observed and recorded continuously up to 60 min after the formalin administration. […] Rats of the strain Sprague Dawley (Janvier, Belgium) are used as the animal strain. The weight of the animals is 180-200 g; the size of the group was n=10.

Where [4] appears, read: 10 μM, relative to retigabine = 100%, comparison experiments table, read-out: Fluorimetry % Efficacy @ 10 μM (retigabine = 100%).
[5] abbreviates: CHO-K1, 10 μM, relative to retigabine = 100%, CHO-K1 cells expressing KCNQ2/3, Table 3, read-out: Fluorimetry % Efficacy @ 10 μM (reti-gabine = 100%).
[6] abbreviates: CHO-K1 cells expressing KCNQ2/3, Table 3.

pEC50, pIC50: −log10 of the molar value.

For orientation: pEC50 means the EC50 on a negative log10 scale, so that one unit is a factor of ten. A word on the pIC50: it is −log10 of the IC50, conventionally taken in molar units. Lower therefore signals a high IC50.

In the case of `O=C(CCC(=O)N1CCc2sccc2C1c1ccccc1)NCc1cccc(C(F)(F)F)c1` (stereo not shown) [Illustrative compound 2, 4-oxo-4-(4-phenyl-6,7-dihydrothieno[3,2-c]pyridin-5(4H)-yl)-N-(3-(trifluoromethyl)benzyl)butanamide], the results for the Emax at 10 µM on hKCNQ2/3 [1], at hKCNQ2/3 [2] (setting [4]) and at hKCNQ2/3 [2] (setting [5]) were 106%, 145% and 165%, respectively. Also, the pEC50 at hKCNQ2/3 [2] (setting [6]) was 6.12; at hKCNQ2/3 [2] (comparison experiments table) it was 5.84. Moreover, the “Formalin test rat i.v. @ 10 mg/kg % reduction in noiceptive behavior” value in assay [3] was 56%. For the same compound, the “Formalin test rat i.v. % reduction in nociceptive behavior” value (from here on “Formalin test rat i.v. % reduction”) in assay [3] (dose 10.0 mg/kg) is listed as 56 (10.0) %.
Take `O=C(CCC(=O)N1CCc2sccc2C1c1cccs1)NCc1cccc(C(F)(F)F)c1` (stereo not shown) [compound 1]: the Emax at 10 µM was 97% on hKCNQ2/3 [1], 165% on hKCNQ2/3 [2] (setting [4]) and 168% on hKCNQ2/3 [2] (setting [5]). Moreover, the negative logarithm of the EC50 (pEC50) on hKCNQ2/3 [2] (setting [6]) was 5.77; at hKCNQ2/3 [2] (comparison experiments table) it was 6.12.
As to `Cc1ccccc1C1c2ccsc2CCN1C(=O)CCC(=O)NCc1cccc(C(F)(F)F)c1` (stereo not shown) [compound 8], the Emax at 10 µM at hKCNQ2/3 [2] (setting [5]) turned out to be 148%. On hKCNQ2/3 [2] (setting [6]), this compound showed a negative-log EC50 (pEC50) of 7.10. In assay [3] (dose 4.64 mg/kg), the “Formalin test rat i.v. % reduction” value is reported as 11 (4.64) %.
`O=C(CCC(=O)N1CCn2cccc2C1c1ccccc1)NCc1cccc(C(F)(F)F)c1` (stereo not shown) [Example No. 2 of WO 2008/046582, reference compound]: the Emax at 10 µM at hKCNQ2/3 [2] (setting [4]) was found to be 115%. Moreover, the negative-log EC50 (pEC50) at hKCNQ2/3 [2] (comparison experiments table) was 5.55. Moreover, the “Formalin test rat i.v. @ 10 mg/kg % reduction in noiceptive behavior” value in assay [3] is on record as “no effect”.
Turning to `O=C(CCC(=O)N1CCc2sccc2C1c1ccccc1)NCc1ccccc1C(F)(F)F` (stereo not shown) [compound 17], the Emax at 10 µM at hKCNQ2/3 [2] (setting [5]) worked out at 74%. The compound further had a pEC50 at hKCNQ2/3 [2] (setting [6]) of 7.21. The “Formalin test rat i.v. % reduction” value in assay [3] (dose 10.0 mg/kg) was 15 (10.0) %.
Take `O=C(CCC(=O)N1CCc2sccc2C1C1CC1)NCc1cccc(C(F)(F)F)c1` (stereo not shown) [compound 260]: at hKCNQ2/3 [1], the Emax at 10 µM came to 91%. Moreover, the pEC50 at hKCNQ2/3 [2] (setting [6]) was 6.97. Moreover, the “Formalin test rat i.v. % reduction” value in assay [3] (dose 4.64 mg/kg) is 46 (4.64) %.
With `O=C(NCc1cccc(C(F)(F)F)c1)C(CC(=O)N1CCc2sccc2C1c1ccccc1)c1ccccc1` (stereo not shown) [compound 27], the Emax at 10 µM on hKCNQ2/3 [2] (setting [5]) turned out to be 119%. Also, at hKCNQ2/3 [2] (setting [6]), the negative-log EC50 (pEC50) is below 6.39.
As to `Cc1ccc(C2c3ccsc3CCN2C(=O)CCC(=O)NCCCc2ccccc2)cc1` (stereo not shown) [compound 51], the Emax at 10 µM on hKCNQ2/3 [2] (setting [5]) is 38%.
Turning to `COc1cccc(CNC(=O)CCC(=O)N2CCc3sccc3C2c2ccccc2)c1` (stereo not shown) [compound 15], the Emax at 10 µM at hKCNQ2/3 [2] (setting [5]) was -46%.
In turn, `Cc1cc(F)ccc1C1c2ccsc2CCN1C(=O)CCC(=O)NCc1cccc(C(F)(F)F)c1` (stereo not shown) [compound 262] gave a negative-log EC50 (pEC50) on hKCNQ2/3 [2] (setting [6]) of 6.78.
Still for that read-out and setting: under `O=C(CCC(=O)N1CCc2sccc2C1c1ccccc1)NCc1cc(F)cc(C(F)(F)F)c1` (stereo not shown) [compound 41] stands 6.58.
Still for that read-out and setting: under `Cc1ccc(CNC(=O)CCC(=O)N2CCc3sccc3C2c2ccccc2)cc1C(F)(F)F` (stereo not shown) [compound 249] stands 6.46; under `O=C(CCC(=O)N1CCc2sccc2C1CCc1ccccc1)NCc1cccc(C(F)(F)F)c1` (stereo not shown) [compound 261], 7.08.
On the same count and under the same terms, under `Cc1ccccc1C1c2ccsc2CCN1C(=O)CCC(=O)NCc1ccc(C(F)(F)F)cc1` (stereo not shown) [compound 257] stands 6.26.
For `Cc1ccc(C2c3ccsc3CCN2C(=O)CCC(=O)NCc2cccc(C(F)(F)F)c2)cc1` (stereo not shown) [compound 5], at hKCNQ2/3 [2] (setting [5]), the Emax at 10 µM turned out to be 61%. The same compound had a negative logarithm of the EC50 (pEC50) on hKCNQ2/3 [2] (setting [6]) below 5.78.
Take `O=C(NCc1cccc(C(F)(F)F)c1)C1CCCCC1C(=O)N1CCc2sccc2C1c1ccccc1` (mixture of isomers) [compound 31]: the “Fluorimetry % Efficacy @ 10 μM (reti-gabine = 100%)” value at hKCNQ2/3 [2] (10 μM, relative to retigabine = 100%, CHO-K1 cells expressing KCNQ2/3, Table 3) is −44%. For the same compound, on hKCNQ2/3 [2] (setting [6]), the negative-log IC50 (pIC50) is 6.60.
In the case of `O=C(CCC(=O)N1CCc2sccc2C1c1ccccc1)N1CCc2ccc(C(F)(F)F)cc2C1` (stereo not shown) [compound 269], the negative-log EC50 (pEC50) at hKCNQ2/3 [2] (setting [6]) was 6.28.
As for `CC(C)C1c2ccsc2CCN1C(=O)CCC(=O)NCc1cccc(C(F)(F)F)c1` (stereo not shown) [compound 22], the Emax at 10 µM on hKCNQ2/3 [2] (setting [5]) came out at 139%. Also, the pEC50 at hKCNQ2/3 [2] (setting [6]) is 5.91.
